In patent US6440999B1, “Intimal thickening inhibitory agent” (Chugai Seiyaku Kabushiki Kaisha, priority 1995, dated 2002):
Marks after values point to notes of the source that are not given here.

Assays:
[1] = system: rabbit balloon injury models; assay: In vivo effect in intimal thickening model (1), rabbit balloon injury
Description: In order to assess the inhibitory effect of the compound of the present invention on intimal thickening in vivo, the compound of Example 36 was tested using rabbit balloon injury models.
(§1) Cholesterol-fed rabbits in groups of eight (JW: CSK male, 11-week-old) were used to prepare rabbit balloon injury models. Briefly, rabbits were fed with a high cholesterol diet (cholesterol content: 1%) for 2 weeks before balloon treatment. The animals were balloon-treated with a balloon catheter (3 French, available from Baxter) under anesthesia to peel the aortic intima 5 times. The animals were orally administered with the compound which was suspended in a 1% carboxymethyl cellulose (CMC) solution (200 mg/kg). On the other hand, control animals were orally administered with a 1% CMC solution without the compound. The administrations were performed once a day from 1 week before the balloon treatment until the day before the dissection for evaluation.
After four weeks from the balloon treatment, specimens were taken from the aorta, stained with Elastica van Geison, and analyzed under an optical microscope. The image was processed to measure the thickness and area of the thickened intima. Averages of the thickness and area were obtained for each individual animal. The animals which died due to the operation and those having a serum cholesterol level of 3500 mg/dl or higher were excluded from the measurement. The number of animals used for the evaluation was 5 or 6 per group.

[2] = system: A7r5 cells derived from the aorta of a rat; assay: Inhibition of serum-stimulated proliferation of vascular smooth muscle cells, BrdU uptake (EIA); assay type: cell-based; conditions: for Absorbance (difference between 405 nm and 492 nm), BrdU uptake: n = 3, mean ± SD
Description: In order to assess the inhibitory effect of a compound of the present invention on serum-stimulated pro-liferation of vascular smooth muscle cells in vitro, the compound obtained in Example 36 was tested using A7r5 cells derived from the aorta of a rat (ATCC-CRL-1444).
Using DMEM medium containing 10% FBS, the cells were placed on 96-well microtiter plates with 5×10^3 cells/0.2 ml/well and then incubated. The medium was exchanged for 2% FBS-containing DMEM medium on the third day and then for 0.2% FBS-containing DMEM medium on the fourth day from the start of the incubation. After 48-hour incubation in the 0.2% FBS-containing DMEM medium, the medium was removed, 0.1 ml of DMEM medium and the test compound were added, and the cells were stimulated with serum (2% FBS) to proliferate. The test compound was added to the wells in the form of a solution or suspension in ethanol in an amount of 0.5 μl/well to final compound concentrations indicated in Table 1 below and the resultant ethanol concentration of 0.5% in each well. BrdU was pulsed to the wells from the 16th to 38th hours or from the 38th to 64th hours after the stimulation to a final concentration of 10 μM, and the uptake of BrdU into DNA was evaluated as an indication of cell proliferation. The BrdU uptake was measured by means of an EIA kit containing an anti-BrdU antibody (5-Bromo-2′-deoxy-uridine Labeling and Detection Kit III, available from Bohringer Mannheim Biochemica).

[3] = system: rabbit balloon injury models; assay: In vivo effect in intimal thickening model (2), rabbit balloon injury
Description: In order to assess the inhibitory effect of the compound of the present invention on intimal thickening in vivo, the compound of Example 36 was tested using rabbit balloon injury models that were different from those used in Test Example 4 in week-age. Further, the effect was compared with that of Probucol which was reported to have an inhibitory effect on intimal thickening in balloon injury models (see Proc. Natl. Acad. Sci., U.S.A., 89, pp 11312-11316 (1992)).
as §1, with “seven” for “eight”, “15-week-old)” for “11-week-old)”, “(4” for “(3”, “CMC” for “carboxymethyl cellulose (CMC)”, “evaluation. In order to evaluate the degree of balloon injury, a balloon-nontreated group (3 animals) was prepared.” for “evaluation.”
After four weeks from the balloon treatment, specimens were taken from the aorta, stained with Elastica van Geison, and analyzed under an optical microscope. The image was processed to measure the thickness and area of the thickened intima. Averages of the thickness and area were obtained for each individual animal. The animals which died after the operation and those having a serum cholesterol level of 3500 mg/dl or higher were excluded from the measurement. The number of animals used for the evaluation was 4 or 5 per group.

[4] = system: A7r5 cells derived from the aorta of a rat; assay: Inhibition of serum-stimulated proliferation of vascular smooth muscle cells, acid phosphatase activity; assay type: cell-based; conditions: 48 hours after 2% FBS stimulation, n = 3, mean ± SD; for Acid Phosphatase Activity Absorbance (OD405): control 0.867 ± 0.089
Description: In order to assess the inhibitory effect of the compounds of the present invention on serum-stimulated proliferation of vascular smooth muscle cells in vitro, the compounds of Examples 1, 4, 20, 22, 27, 31, 36, 50, 52, and 58 were tested using A7r5 cells derived from the aorta of a rat (ATCC-CRL-1444).
Using DMEM medium containing 10% FBS, the cells were placed on 96-well microtiter plates with 5×10^3 cells/0.2 ml/ well and then incubated. The medium was exchanged for 2% FBS-containing DMEM medium on the third day and then for 0.2% FBS-containing DMEM medium on the fourth day from the start of the incubation. After 24-hour incubation in the 0.2% FBS-containing DMEM medium, the test compound was added. Each of the test compounds were added to the wells in the form of a solution or suspension in ethanol in an amount of 1 μl/well to final compound concentrations indicated in Table 3 below and the resultant ethanol concentration of 0.5% in each well. After additional 24-hour incubation, the medium was removed, and 0.2 ml of DMEM medium and the test compound were added thereto again, and the cells were stimulated by serum (2% FBS). Forty-eight hours after the stimulation, the acid phosphatase activity in the wells was measured by means of a kit (Abacus Cell Proliferation Kit, available from Clontech Lab. Inc. CA, U.S.A.) and evaluated as an indication of cell proliferation.

[5] = both intimal thickness and intimal area, 200 mg/kg oral

Structure (SMILES): CCCCCC1(CCCCC)Cc2c(cc(C(C)(C)C)c(O)c2C(C)(C)C)O1 [Example 36, 4,6-Di-t-butyl-2,2-di-n-pentyl-5-hydroxy-2,3-dihydrobenzofuran]
- Inhibitory effect on intimal thickening (in words) [1, 5]: significant inhibitory effect on intimal thickening
- Area of Intima ([1]; cholesterol-fed rabbits, 11-week-old, 200 mg/kg oral once a day, four weeks after balloon treatment, control 0.26 ± 0.03, mean ± SD): 0.11 ± 0.08** mm^2
- Thickness of Intima ([1]; cholesterol-fed rabbits, 11-week-old, 200 mg/kg oral once a day, four weeks after balloon treatment, control 103 ± 12, mean ± SD): 45 ± 31 μm
- Absorbance (difference between 405 nm and 492 nm), BrdU uptake ([2]; 10 μM, BrdU pulse 16-38 hrs. after 2% FBS stimulation, control 0.433 ± 0.008): 0.397 ± 0.054
- Absorbance (difference between 405 nm and 492 nm), BrdU uptake ([2]; 10 μM, BrdU pulse 38-64 hrs. after 2% FBS stimulation, control 0.436 ± 0.060): 0.195 ± 0.017
- Absorbance (difference between 405 nm and 492 nm), BrdU uptake ([2]; 30 μM, BrdU pulse 16-38 hrs. after 2% FBS stimulation, control 0.433 ± 0.008): 0.362 ± 0.026
- Absorbance (difference between 405 nm and 492 nm), BrdU uptake ([2]; 30 μM, BrdU pulse 38-64 hrs. after 2% FBS stimulation, control 0.436 ± 0.060): 0.085 ± 0.006
- Absorbance (difference between 405 nm and 492 nm), BrdU uptake ([2]; 100 μM, BrdU pulse 16-38 hrs. after 2% FBS stimulation, control 0.433 ± 0.008): 0.290 ± 0.031
- Absorbance (difference between 405 nm and 492 nm), BrdU uptake ([2]; 100 μM, BrdU pulse 38-64 hrs. after 2% FBS stimulation, control 0.436 ± 0.060): 0.049 ± 0.006
- Inhibition of serum-stimulated proliferation of vascular smooth muscle cells (in words) ([2]; BrdU uptake, 10-100 μM): inhibits the serum-stimulated proliferation of vascular smooth muscle cells dose-dependently
- Inhibitory effect on intimal thickening compared with Probucol (in words) ([3]; 200 mg/kg oral): higher than that of Probucol
- Inhibitory effect on intimal thickening (in words) [3, 5]: significant inhibitory effect on intimal thickening
- Area of Intima ([3]; cholesterol-fed rabbits, 15-week-old, 200 mg/kg oral once a day, four weeks after balloon treatment, control 1.32 ± 0.22, mean ± SD): 0.81 ± 0.22 mm²
- Thickness of Intima ([3]; cholesterol-fed rabbits, 15-week-old, 200 mg/kg oral once a day, four weeks after balloon treatment, control 119 ± 19, mean ± SD): 76 ± 16 μm
- Acid Phosphatase Activity Absorbance (OD405) ([4]; 10 μM): 0.733 ± 0.060
- Acid Phosphatase Activity Absorbance (OD405) ([4]; 100 μM): 0.539 ± 0.055
- activity at 10 µM ([4]; Rattus norvegicus, A7R5, 10 μM, control 100 ± 10): 84 ± 7%
- activity at 100 µM ([4]; Rattus norvegicus, A7R5, 100 μM, control 100 ± 10): 62 ± 6%
